In brackets after ≈: the same amount, converted by molar mass. Where two headings read alike, the source gives them in different places.
Key:
[1] = maximum solubility of Resiniferatoxin by the equilibrium method (HPLC); format: physicochemical; settings: buffer medium with TPGS, 25 °C, pH 8, aqueous with cosolvent or surfactant or cyclodextrin, thermodynamic from solid, TPGS 3.5 mg/ml, n ≥ 3, read-out: RTX solubility
Experimental: The maximum solubility of Resiniferatoxin in various liquids was investigated by the equilibrium method.
Buffer media were saturated with an excess amount of Resiniferatoxin (characterized by undissolved API) and incubated at 25° C. while shaking (150 rpm) for 72 h. After incubation, 1 mL of each sample was centrifuged (10 min, 12045 RCF) and the supernatant was used to determine the amount of solubilized Resiniferatoxin via HPLC.

[2] = same trial: safety, treatment emergent adverse events and injection site pain; format: in vivo, human; settings: for subjects with severe adverse events: none related to investigational medicinal product
Experimental: (§1) The primary objective of this study was to compare the analgesic effects of single intraarticular injections of Resiniferatoxin (100 or 400 ng) compared to placebo, at 3 and 6 months postinjection, in participants with chronic osteoarthritic knee joint pain. Secondary objectives were to evaluate the analgesic effects of Resiniferatoxin versus placebo in terms of a responder analysis (percentage of subjects achieving ≥50% or ≥70% reduction in visual analog scale pain score) and changes in Western Ontario and McMaster Universities Arthritis Index (WOMAC) total and subscale scores (pain, physical function and stiffness). Safety and injection site pain were also evaluated.
(§2) The study was conducted as a randomized, double-blind, placebo-controlled, single-dose trial of Resiniferatoxin. Eligible patients were aged 40 to 80 years with radiographic knee osteoarthritis (Kellgren-Lawrence Grade 2-4 in the last 3 years) and a baseline visual analog scale (0-100 mm) pain score ≥40 mm on motion in the target knee, with or without pain medication. 67 subjects were randomized to treatment with either Resiniferatoxin 100 ng (n=24) or 400 ng (n=23), or placebo (n=20), administered intraarticularly into the index knee. Intraarticular Ropivacaine (5 ml, 0.5%) was administered 15 mins before investigational medicinal product. Visual analog scale scores were used to evaluate pain on motion as the average of the last 2 days in a target knee between baseline and at 3 and 6 months post injection. Injection site pain was rated (visual analog scale) from baseline (−0.5 h) up to 3 h post intraarticular injections.

[3] = randomized, double-blind, placebo-controlled, single-dose trial of intraarticular Resiniferatoxin: analgesic effect (VAS pain on motion, WOMAC); format: in vivo, human
Experimental: as §1, §2
Data values plotted as mean±standard error of mean, offset in X for clarity. ▴ Placebo (n=20); ▪ Resiniferatoxin 100 ng (n=24); ● Resiniferatoxin 400 ng (n=23).

[4] = cited from earlier work
[5] = single intraarticular 100 ng or 400 ng

| SMILES | solubility at 72 h ([1]; Ex. 5-1: no ethanol, NaCl 8.58, CaCl2 0.2, KCl 0.1, trometamol 0.4 mg/ml, pH 8.0, mean ± SD) | solubility at 72 h ([1]; Ex. 5-2: ethanol 39.44 mg/ml, NaCl 8.58, CaCl2 0.58, KCl 0.3, trometamol 1.22 mg/ml, pH 8.0, mean ± SD) | solubility at 72 h ([1]; Ex. 5-3: ethanol 39.44 mg/ml, mannitol 14.9 mg/ml, salts as Ex. 5-2, pH 8.0, mean ± SD) | solubility at 72 h ([1]; Ex. 5-4: no ethanol, NaCl 8.58, CaCl2 0.58, KCl 0.3, trometamol 1.22 mg/ml, pH 8.0, mean ± SD) | subjects with severe adverse events ([2]; Resiniferatoxin 100 ng) | subjects with severe adverse events ([2]; Resiniferatoxin 400 ng) | injection site pain (procedural pain) compared to placebo ([2]; highly variable across treatment groups) | time of peak injection site pain post-injection ([2]; intraarticular injection, moderate-severe intensity in some subjects) | injection site pain, return to baseline ([2]; post intraarticular injection) | safety profile and tolerability [2, 5] | reduction in WOMAC total and subscale scores (pain, physical function and stiffness) compared to placebo ([3]; 100 ng and 400 ng, at both 3 and 6 months) | pain reduction compared to placebo ([3]; 100 ng or 400 ng intraarticular) | first trial visit at which reduction in VAS pain on motion was observed ([3]; intention-to-treat population) | last trial visit until which the effect lasted ([3]; intention-to-treat population) | analgesic onset after administration [3, 5] | duration for which analgesia was evident during follow-up [3, 5] | efficacy ([4]; 5 μg, 12.5 μg, 20 μg and 30 μg cohorts, preliminary) | safety ([4]; onetime intraarticular injection up to 30 μg) |
| --- | --- | --- | --- | --- | --- | --- | --- | --- | --- | --- | --- | --- | --- | --- | --- | --- | --- | --- |
| C=C(C)[C@]12C[C@@H](C)[C@@]34O[C@](Cc5ccccc5)(O[C@@H]1[C@@H]3C=C(COC(=O)Cc1ccc(O)c(OC)c1)C[C@]1(O)C(=O)C(C)=C[C@@H]41)O2 [RTX] | 333 ± 100 µg/mL (≈ 530 µM) | 630 ± 38 µg/mL (≈ 1000 µM) | 336 ± 53 µg/mL | 317 ± 75 µg/mL (≈ 504 µM) |  |  |  |  |  |  |  |  |  |  |  |  |  |  |
| C=C(C)[C@]12C[C@@H](C)[C@@]34O[C@](Cc5ccccc5)(O[C@@H]1[C@@H]3C=C(COC(=O)Cc1ccc(O)c(OC)c1)C[C@]1(O)C(=O)C(C)=C[C@@H]41)O2 [Resiniferatoxin, 4-hydroxy-3-methoxy-benzeneacetic acid, [(2S,3aR,3bS,6aR,9aR,9bR, 10R,11aR)-3a,3b,6,6a,9a,10,11,11a-octahydro-6a-hydroxy-8,10-dimethyl-11a-(1-methylethenyl)-7-oxo-2-(phenylmethyl)-7H-2,9b-epoxyazuleno[5,4-e]-1,3-benzodioxol-5-yl]methyl ester] |  |  |  |  | 2 subjects | 3 subjects | generally higher | around 0.5 h | ≤ 3 h | good safety profile | greater reduction | greater pain reduction | 8 days | 6 month | within one week | at least 3 months | Preliminary efficacy was also observed | demonstrated safety |

Source: patent US20250228815A1, “LYOPHILIZED RESINIFERATOXIN” (Gruenenthal GmbH, priority 2024, published 2025)
